Our source for the EC50, IC50 and outcome values is PubChem BioAssay AID179 (DTP/NCI, 2004).

Active and inactive are the calls of the source.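 How the source made its calls: active means compounds giving half or more protection of infected cells from virus-caused growth loss, again on retest; inactive means the rest.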 Some results are limits rather than exact numbers.

The assay concerns CEM cells HIV-1 protection, formazan growth assay. The experiment in a line: NCI AIDS Antiviral Assay. The conditions noted are these: for IC50: measured here: growth of uninfected CEM cells. An outline of the steps: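 Soluble formazan readout of cell growth; CEM cells ± HIV-1; 5 drug concs. ≥50% protection → retest; ≥50% again = moderately active; reproducible 100% = confirmed active.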

For `O=C1C(=O)N(C2C3CC4CC(C3)CC2C4)C(=O)C(=O)C1c1nc2ccccc2o1` (stereo unspecified), the EC50 (as a rule, the concentration needed to bring the measured effect to its halfway point) was above 91.2 µM and the concentration for half-maximal inhibition (IC50) – broadly, the concentration at which inhibition is half-maximal – turned out to be 52.5 µM. The matching figures for `O=C(O)COc1c2occc2cc2ccc(=O)oc12`: above 347 µM and above 347 µM. With `O=C1CCCC/C1=C1\C(=O)Nc2cc(F)ccc21`, the EC50 is above 1020 µM and the half-maximal inhibitory concentration (IC50) amounted to 107 µM. The matching figures for `COc1cc(C)c(O)c(C[P+](c2ccccc2)(c2ccccc2)c2ccccc2)c1`: above 200 µM and 11.7 µM.

On to `CC(=O)Nc1ccc(NC(=O)c2cccc3c(Nc4ccc(S(=O)(=O)Nc5cc(C)on5)cc4)c4ccccc4nc23)cc1`, for which the EC50 is above 200 µM and the IC50 is 23.4 µM. Take `Cc1cc2c(=O)cc(-c3ccncc3)oc2c(C(=O)O)c1C`: the EC50 is above 851 µM and the IC50 was above 851 µM.

Regarding `O=C(O)C1(Cc2ccc3c(c2)CCC3)Cc2ccccc2C1`, the EC50 was above 200 µM and the half-maximal inhibitory concentration (IC50) is 81.3 µM. The matching figures for `COc1ccc(/C=C(\C(C)=O)C(=O)Nc2ccccc2)cc1`: above 17.8 µM and above 17.8 µM.

With `NC(CC(=O)N/C=N\O)C(=O)O` (stereo unspecified), the EC50 is above 200 µM and the IC50 is above 200 µM.

Take `CC(=O)/C(=C/n1c(=S)[nH]c2ccc([N+](=O)[O-])cc21)C(=O)Nc1ccc([N+](=O)[O-])cc1`: the EC50 is above 200 µM and the IC50 came to 33.1 µM.

As for `CCCCOB(OCCCC)OCCCC`, the EC50 is above 200 µM and the IC50 is above 200 µM. Take `CC(C)c1ccc2c(c1)C=C1OC(=O)[C@]3(C)CCC[C@@]2(C)C13` (stereo partly specified): the EC50 is above 200 µM and the IC50 came out at 115 µM.

For the compound `CCCCNC=C1C(=O)Nc2ccccc2NC1=O`, the EC50 was above 200 µM and the IC50 was above 200 µM. On to `COc1cncn2nc(C)nc12`, for which the EC50 is above 75.9 µM and the IC50 was above 75.9 µM.

As for `O=c1cc(NNc2ccc(F)cc2)[nH]c(=O)[nH]1`, the EC50 is above 200 µM and the IC50 amounted to 2.95 µM. The matching figures for `CC(=O)Nc1ccc2cc(-c3ccc(Cl)cc3)c3nnnn3c2n1`: above 200 µM and above 200 µM. The matching figures for `CCCNCC(=O)O[C@]1(CC)C(=O)OCc2c1cc1n(c2=O)Cc2cc3ccccc3nc2-1`: above 10 µM and 0.0525 µM.

As to `CCOC(=O)c1cc(-c2ccccc2)c(=O)c(OC)nc1-c1ccccc1`, the EC50 was above 200 µM and the 50% inhibitory concentration (IC50) worked out at 74.1 µM. The matching figures for `COC1/C=C/OC2(C)Oc3c(C)c(O)c4c(O)c(c(/C=N/N5C(C)CN(Cc6ccc([N+](=O)[O-])cc6)CC5C)c(O)c4c3C2=O)NC(=O)/C(C)=C\C=C\C(C)C(O)C(C)C(O)C(C)C(OC(C)=O)C1C` (stereo unspecified): above 200 µM and 7.59 µM. The matching figures for `CCOC(=O)C(C(=O)OCC)c1ccc([N+](=O)[O-])o1`: above 132 µM and 1.86 µM. For the compound `CNC(=O)CNC(=O)CCC(=O)N(C)C`, the EC50 is above 200 µM and the IC50 is above 200 µM.

Take `O=c1[nH]nc2c3n[nH]c(=O)n3c3ccccc3n12`: the EC50 was above 14.8 µM and the IC50 is above 14.8 µM. Take `COc1ccc(C2=NN(c3nsc4ccccc34)C(=O)CC2)cc1`: the EC50 was above 40.7 µM and the concentration for half-maximal inhibition (IC50) was above 40.7 µM. Turning to `Cc1ccc(-c2nc3scc(C)n3n2)cc1`, the EC50 was above 200 µM and the IC50 is 182 µM.

For `Nn1c(C23CC4CC(CC(C4)C2)C3)n[nH]c1=S`, the EC50 was 182 µM and the half-inhibitory concentration (IC50) is above 200 µM. The matching figures for `Cc1ccc2ccc(=O)oc2c1`: above 309 µM and above 309 µM. The matching figures for `CCCc1cc(=O)oc2c3c(c4c(c12)OC(C)(C)C=C4)O[C@H](C)[C@H](C)[C@@H]3O`: above 87.1 µM and 6.46 µM. On to `COCCOC(=O)C1=C(O)c2ccccc2S(=O)(=O)N1C`, for which the EC50 is above 794 µM and the IC50 amounted to 562 µM.

With `COc1ccc(CCNC(=S)N/C=C(\C#N)S(=O)(=O)c2ccc(C)cc2)cc1OC`, the EC50 was above 200 µM and the IC50 was above 200 µM. For `CCOP(=O)(OCC)C(Cc1c[nH]c2ccccc12)C(=O)O` (stereo unspecified), the EC50 is above 200 µM and the IC50 was above 200 µM. As to `CCCNC(=O)Cn1c2c(c3ccccc31)CCCC2`, the EC50 was above 200 µM and the IC50 is 69.2 µM. On to `COc1cc(C2c3cc4c(cc3OC(Nc3ccccc3)C2C)OCO4)cc(OC)c1O` (stereo unspecified), for which the outcome was inactive. Regarding `O=C(Cn1ccnc1[N+](=O)[O-])NCc1ccc(F)cc1`, the EC50 is above 178 µM and the IC50 was above 178 µM. Regarding `CCOc1ccc(NC(=O)C(=O)CC(=O)C2=C(C)Nc3ccccc3S2)cc1`, the EC50 is above 64.6 µM and the 50% inhibitory concentration (IC50) is above 64.6 µM. Consider `CC(=O)c1ccc(C(=O)c2ccccc2C(=O)O)cc1`, for which the concentration for a half-maximal effect (EC50) is above 200 µM and the IC50 was above 200 µM. Regarding `CC(=O)N1C(=O)CC2(N=C(C)CC2=O)c2ccccc21` (stereo unspecified), the EC50 is above 200 µM and the half-inhibitory concentration (IC50) was above 200 µM. For `CC(O)(P(=O)(O)O)P(=O)(O)O.[NH-]CC[NH-].[NH-]CC[NH-].[Pd+2].[Pd+2]`, the EC50 was above 200 µM and the half-inhibitory concentration (IC50) was 87.1 µM. The matching figures for `C[C@@]12C[C@@H](c3ccccc3O1)N1Cc3ccccc3CSC1=N2`: above 200 µM and 49 µM. As for `O=C(O)CCCCCCCC(=O)O`, the EC50 was above 1320 µM and the IC50 was above 1320 µM. `CC(C)(C)OC(=O)NS(=O)(=O)Nc1ccccc1`: the EC50 was above 200 µM and the half-inhibitory concentration (IC50) was above 200 µM. For the compound `CCCC(OCC)(OCC)OCC`, the EC50 was above 1320 µM and the 50% inhibitory concentration (IC50) was above 1320 µM. As to `CN(C(=N)c1ccccc1)c1ccccc1`, the outcome was inactive.

With `COc1ccc(N=Nc2ccc3oc(=O)c(C(=O)Nc4ccc(OC)cc4)cc3c2)cc1`, the EC50 was above 200 µM and the concentration for half-maximal inhibition (IC50) came to 20 µM. The matching figures for `COC(=O)CC(NC(=O)OCc1ccccc1)C(C(C)=O)C(=O)OCc1ccccc1` (stereo unspecified): above 75.9 µM and above 75.9 µM. On to `CCOC(=O)[C@H]1CSC[C@@H](C(=O)OC)N1`, for which the EC50 was above 562 µM and the IC50 was above 562 µM. Consider `COc1cc(C(=O)c2cocc2C(=O)c2ccc3c(c2)OCO3)cc(OC)c1OC`, for which the result was inactive. In the case of `COC(=O)C1(C(=O)OC)N=C(C)OC1c1ccoc1` (stereo unspecified), the EC50 is above 200 µM and the half-maximal inhibitory concentration (IC50) was above 200 µM.

Take `C[Si](C)(CCC(=O)O)O[Si](C)(C)CCC(=O)O`: the EC50 was above 646 µM and the IC50 is above 646 µM. Consider `CSc1c(C#N)c(S)n(-c2ccc(Cl)cc2)c(=O)c1C#N`, for which the EC50 is above 200 µM and the IC50 stood at 52.5 µM.

For the compound `CC(C)(C)/C(CC(=O)CCC(=O)Nc1ccc(Cl)cc1)=N\NC(N)=S`, the outcome was inactive. For `COc1cccc2c1OC(c1ccc(Cl)cc1)C([N+](=O)[O-])=C2` (stereo unspecified), the EC50 is above 200 µM and the IC50 turned out to be 1.45 µM. The matching figures for `NNC1=Nc2ccccc2N=C2CCSCC21` (stereo unspecified): above 200 µM and 178 µM. The matching figures for `O=c1[nH]c2nc3ccccc3c(=O)n2/c1=C/c1ccc(O)cc1`: above 200 µM and 52.5 µM.

Regarding `CCOC(=O)Cc1ccc(-c2cn3c(n2)sc2ccccc23)cc1`, the EC50 was above 200 µM and the IC50 is above 200 µM. On to `CN(C)C(CN)CC1=C(CC(CN)N(C)C)CCC1` (stereo unspecified), for which the result was inactive. Turning to `CC(=O)N1C(=O)C2(Nc3cccnc3N2)c2ccccc21` (stereo unspecified), the EC50 is above 100 µM and the IC50 is above 100 µM. As to `C=C(CCC(=O)N(CCc1c[nH]c2ccccc12)C(=O)c1ccccc1CSCC)C(=O)OC`, the EC50 was above 200 µM and the concentration for half-maximal inhibition (IC50) worked out at 15.1 µM.

As for `O=C(NC(=O)c1cn(C2OC(CO)C(O)C2O)c(=O)[nH]c1=O)OCc1ccccc1` (stereo unspecified), the EC50 was above 589 µM and the half-inhibitory concentration (IC50) is above 589 µM. Regarding `CC(C)(C)[Si](C)(C)OCC1OC(n2cc(I)c(=O)[nH]c2=O)C(O[Si](C)(C)C(C)(C)C)C1O[Si](C)(C)C(C)(C)C` (stereo unspecified), the EC50 was above 200 µM and the IC50 was 17.4 µM. The matching figures for `O=C(Nc1ccc(Cl)cc1)NS(=O)(=O)c1ccc2c(c1)CCC2`: above 708 µM and 47.9 µM. The matching figures for `Cc1ncc([N+](=O)[O-])n1CCNC(=O)CCCCn1ccnc1[N+](=O)[O-]`: above 200 µM and above 200 µM. The matching figures for `Cc1ccc(NC(=O)CC(=O)n2nc(C)c(N=Nc3ccc(S(=O)(=O)CCOS(=O)(=O)O)cc3)c2C)cc1`: above 200 µM and above 200 µM. In the case of `CCOC(=O)C1=C(C)C2C3C(=O)OC(=O)C3C1(C)C1C(=O)OC(=O)C21` (stereo unspecified), the result was inactive. With `Cc1c(NC(=O)C(C)(C)Br)c(=O)oc2c(C)c3occc(=O)c3cc12`, the EC50 is above 16.6 µM and the IC50 is above 16.6 µM. As to `CCOC(=O)C(=O)C1C(=O)Nc2ccccc21` (stereo unspecified), the EC50 is above 398 µM and the IC50 is 204 µM. With `COc1ccc(C(=O)Oc2c(C#N)sc3c2c(=O)n(-c2ccccc2)c(=S)n3-c2ccccc2)cc1`, the EC50 was above 200 µM and the IC50 amounted to 5.13 µM. As for `CCC1CC2CN3CCc4c([nH]c5c(-c6c(OC)ccc7c8c([nH]c67)[C@]6(C(=O)OC)CC7CC(CC)C6N(CC8)C7)c(O)ccc45)[C@](C(=O)OC)(C2)C13` (stereo partly specified), the EC50 is above 200 µM and the IC50 amounted to 12.9 µM.

Take `CC(=O)Nc1oc(C)nc1C#N`: the EC50 was above 200 µM and the IC50 is above 200 µM. For `COc1ccccc1/C=N/Nc1nnc2c3ccccc3c3ncccc3c2n1`, the EC50 was above 200 µM and the IC50 turned out to be 138 µM.

In the case of `CCCCn1c(C)c2c(c1C)C(=O)N(CCN1CCN(c3ccccc3Cl)CC1)C2=O`, the EC50 is above 200 µM and the IC50 was above 200 µM.

Take `Clc1cc(Cl)c2c(c1)[nH]c1nc3ccccc3nc12`: the EC50 is above 18.2 µM and the 50% inhibitory concentration (IC50) is above 18.2 µM.
